Results on four compounds are retold here after patent publication US20060134064A1, “Combined treatment with interferon-alpha and an epidermal growth factor receptor kinase inhibitor” (priority 2004, published 2006).

Like-named read-outs stand apart in the source and are kept apart here.

One test concerns colorectal cancer. To be noted: cited from earlier work.
Another test relates to HER1/EGFR. The experiment in a line: Cell-surface HER1/EGFR expression by immunofluorescent flow cytometry after IFNα treatment. Type of test: cell-based, human. To be noted: IFNα 100 IU/mL. The method, then: The cell-surface HER1/EGFR levels at 72 h and 96 h of culture, with or without IFN-α (50 or 100 IU/ml), were measured by immunofluorescent flow cytometry. Cells were seeded in 60×15 mm dishes (FALCON™, BD) and treated with 100 IU/mL of IFN-α. The treated and untreated cells were harvested at different time intervals using 0.02% EDTA in PBS, then washed twice with ice-cold PBS and counted. The mouse monoclonal antibody against the extracellular domain of human HER1/EGFR (Catlog No: MO886, DAKO) diluted 1 in 100 in PBS was added to the cells (1×10^6 cells in 100 μL volume), while an irrelevant IgG 2b was used as the isotype-matched antibody control. After 60 min on ice, cells were washed and incubated with 100 μL of fluorescein-isothiocyanate (FITC)-conjugated goat-anti-mouse IgG (Catlog No: 81-6511, ZYMED), 1 in 200 dilution in PBS, on ice for 30 min in the dark. The cells were then washed again twice and resuspended in 1% formaldehyde in PBS. Cell surface immunofluorescence was analysed on a FACSCalibur (BD) using CELLQuest software equipped with a 5 W argon ion laser tuned to 488 nm at 200 mW. Levels of protein expression were estimated as the geometric mean of fluorescence intensity (MFI) of anti-HER1/EGFR minus that of the isotype-matched antibody control. Ten thousand singlet and viable cells of the individual treated and control samples were measured. Duplicate experiments with triplicate samples were performed for all cells.
Cell-surface HER1/EGFR expression by untreated cell lines: All cell lines were measured first to obtain an untreated level of HER1/EGFR. Cells were harvested after 72 h of culture and measured by flow cytometry. The HER1/EGFR value was calculated as the geometric mean fluorescence intensity of anti-HER1/EGFR detection minus that of isotype control. SW620 cells were HER1/EGFR-negative. Other cell lines including DLD-1, HCT116, HT29, KM12SM, LIM2099, LIM2408, LOVO and SW480 all positively expressed HER1/EGFR.
The relationship between HER1/EGFR expression and IFNα treatment was assessed in all cell lines. Cells were all cultured with or without 100 IU/mL of IFNα (which mimics serum levels in humans given subcutaneous interferon (Robinson S. P., et al. (1990) Breast Cancer Res. Treat.; 5:95-101) for 72 and 96 h. The cell-surface HER1/EGFR expression at 72 h of culture from untreated and treated groups of individual cell lines detected using anti-HER1/EGFR antibody minus isotype control is shown in FIG. 1. IFNα treatment was associated with significant up-regulation of cell-surface HER1/EGFR expression in 7 of 8 HER1/EGFR-positive cell lines, including DLD-1 (HER1/EGFR level (mean plus/minus standard deviation of the mean) treated versus that untreated: 17.89+0.60/10.86+0.51, paired t test, p=0.005; 95% confidence interval of the difference: 4.88−9.16), HCT116 (22.75+0.79/7.80+0.22, p<0.001; 13.52−16.36), HT29 (11.12+0.20/8.58+0.24, p=0.004; 1.82−3.27), LIM2099 (22.19+0.56/12.82+0.52, p=0.001; 7.87−10.86), LIM2408 (22.93+0.53/10.77+0.21, p=0.001; 10.35−13.97), LOVO (14.77+0.34/8.12+0.25, p=0.003; 5.2−8.1), and SW480 (27.09+0.76/14.10+0.33, p=0.002; 10.66−15.32) cells. In contrast, HER1/EGFR expression levels were not increased in KM12SM cells after IFNα treatment. […] Consistently, at 96 h of culture the cell-surface HER1/EGFR expression from untreated and treated groups of individual cell lines followed the same trend. Since up-regulation of HER1/EGFR expression was sustained between 72 and 96 h, we thus chose 72 h for IFNα pretreatment and 96 h for combination treatment introduced below.
Background: Flow cytometry measures light scatter and fluorescence of single cells or particles in a stream.

The next test relates to BL-17/0/X1. The test is described as follows: Crystal violet nuclear staining assay, bladder cancer cell line BL-17/0/X1. Type of test: cell-based. To be noted: 2.5 μg/ml erlotinib, 96 h. An excerpt:
(§1) It is known that 40-60% of bladder cancers over-express EGFR which provides an opportunity for targeted therapy.

The test system of a further test is BL-17/2. The experiment in a line: Crystal violet nuclear staining assay, bladder cancer cell line BL-17/2. Type of test: cell-based. To be noted: 2.5 μg/ml erlotinib, 96 h.
From the text: as §1

The next test has as its system MGHU3. The test is described as follows: Crystal violet nuclear staining assay, bladder cancer cell line MGHU3. Type of test: cell-based. To be noted: 2.5 μg/ml erlotinib, 96 h.
From the text: as §1

A further test deals with HT1376. The experiment in a line: Crystal violet nuclear staining assay, bladder cancer cell line HT1376. To be noted: 2.5 μg/ml erlotinib, 96 h. Type of test: cell-based.
From the text: as §1

The subject of test [1] is bladder cancer cell lines. As to conditions: 10 μg/ml erlotinib; 8 of 9 cell lines.
Experimental: Three different experimental schedules were performed: Single drug exposure over a range of concentrations of erlotinib, combination with IFN-α, and pre-treatment with IFN-α followed by erlotinib combined with IFN-α.
Cells were grown in 24-well plates and the antiproliferative effect was measured by crystal violet nuclear staining assay.

For the compound `O=c1[nH]cc(F)c(=O)[nH]1` [5-fluorouracil], the response rates result with colorectal cancer (single-agent treatment, advanced colorectal cancer) is given as “about 10%”.

As for IFNα, the “HER1/EGFR level (geometric mean fluorescence intensity minus isotype control), treated” value in the test with HER1/EGFR (DLD-1 cells, 72 h, mean plus/minus SD) is on record as 17.89 ± 0.60; with HER1/EGFR (HCT116 cells, 72 h, mean plus/minus SD), 22.75 ± 0.79; in the test on HER1/EGFR (HT29 cells, 72 h, mean plus/minus SD), 11.12 ± 0.20; in the test with HER1/EGFR (LIM2099 cells, 72 h, mean plus/minus SD) it was 22.19 ± 0.56; in the test on HER1/EGFR (LIM2408 cells, 72 h, mean plus/minus SD) it was 22.93 ± 0.53; in the test on HER1/EGFR (LOVO cells, mean plus/minus SD (FIG. 1: LOVO measured at 24 h)), 14.77 ± 0.34. Also, in the test on HER1/EGFR (SW480 cells, 72 h, mean plus/minus SD), the “HER1/EGFR level (geometric mean fluorescence intensity minus isotype control), treated” value was 27.09 ± 0.76. Besides, the “Induction of HER1/EGFR expression by IFNα treatment” value in the test with HER1/EGFR (HER1/EGFR-negative SW620 cells, 72 h) was “unable to induce HER1/EGFR expression”. In the test with HER1/EGFR (KM12SM cells, 72 h), the “HER1/EGFR expression levels after IFNα treatment” value is recorded as “not increased”.

Consider `O=C1[O][Pt]2([NH][C@@H]3CCCC[C@H]3[NH]2)[O]C1=O` [oxaliplatin], for which the response rates with colorectal cancer (combined with 5-FU and leucovorin, first-line treatment for colorectal cancer) is 25-40%.

As to `C#Cc1cccc(Nc2ncnc3cc(OCCOC)c(OCCOC)cc23)c1` [erlotinib, [6,7-bis(2-methoxyethoxy)-4-quinazolin-4-yl]-(3-ethynylphenyl)amine], the “growth rate of control cells” value in the test with BL-17/0/X1, in the test on BL-17/2, in the test on MGHU3 and with HT1376 was below 60% throughout. For the same compound, the “growth rate of control” value in test [1] is given as below 60%.
